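These data come from cells grown in 96-well plates and exposed to compound for 48 hours at five concentrations. Here, GI50 denotes the concentration required for 50% inhibition of growth.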 Calls of active or inactive are those of the source. No stated cut-off is given here; in the data, active = GI50 up to about 1.1 µM and inactive = higher.
Key:
Assay in all cases: growth of human tumour cells (NCI), 48 h
[1] = test system: BT-549
[2] = test system: LXFL 529
[3] = test system: KM-20L2
[4] = test system: SNB-78
[5] = test system: DMS-273
[6] = test system: DLD-1
[7] = test system: HOP-18
[8] = test system: XF498
[9] = test system: RXF 631

SMILES	GI50 [1]	GI50 [5]	GI50 [6]	also measured
Cn1c(=O)oc2cc(C(=S)N3CCC(Cc4ccccc4)CC3)ccc21	> 100 µM (inactive)	–	–	–
Cc1cc(C)c2c(c1)CSCc1cc(C)cc(C)c1-2	–	58.1 µM (inactive)	33.3 µM (inactive)	GI50 [2]: 57.5 µM (inactive); GI50 [3]: 35.1 µM (inactive); GI50 [4]: 25.1 µM (inactive); GI50 [7]: 37.6 µM (inactive)
C=C(Cl)CN1c2ccccc2C=Cc2ccccc21	46 µM (inactive)	–	–	–
Cc1ccc(C(=O)c2[nH]c(NCc3ccccc3)c(C(=S)Nc3ccccc3)c2N)cc1	7.94 µM (inactive)	–	–	–
CCOC(=O)c1c(SCCN(CC)CC)n(-c2ccccc2)c(=S)n(-c2ccccc2)c1=O	7.13 µM (inactive)	–	–	–
O=c1[nH]c(=O)n(C2CC(O)C(CO)O2)cc1Oc1ccccc1 (stereo unspecified)	> 100 µM (inactive)	–	–	–
COc1ccc2c(c1)/C(=C(\C(Cl)=C(\Cl)N1CCCCC1)[N+](=O)[O-])N2	98.6 µM (inactive)	–	–	–
COc1ccc(OC)c(/C=C(/C#N)c2ccccc2)c1	–	4.22 µM (inactive)	28.7 µM (inactive)	GI50 [2]: 34.3 µM (inactive); GI50 [3]: 16.6 µM (inactive); GI50 [7]: > 100 µM (inactive)
COC(=O)[C@H](COC(C)(C)C)NC(=O)N[C@H](C)c1ccccc1	> 100 µM (inactive)	–	–	–
CCOC(=O)Cn1c(C(F)(F)F)nc2nc(Cl)c(Cl)nc21	54.8 µM (inactive)	–	–	–
CC(=O)OC1COC(n2nc(N)nc2C)C(OC(C)=O)C1OC(C)=O (stereo unspecified)	> 100 µM (inactive)	–	–	–
CCOC1C=CC(=O)C(CO)O1 (stereo unspecified)	11.6 µM (inactive)	–	–	–
C[C@@H](Oc1ccc(Oc2cnc3ccc(Cl)cc3n2)cc1)C(=O)O [R(+)XK469]	> 100 µM (inactive)	–	–	–
CCN(CC)CCC(=O)c1ccccc1	–	18.5 µM (inactive)	–	GI50 [2]: 17.8 µM (inactive); GI50 [3]: 21.5 µM (inactive); GI50 [7]: 15.3 µM (inactive)
CC(OC1CC(=O)CC2C(=O)C=CC(=O)C12)c1ccccc1 (stereo unspecified)	–	19.1 µM (inactive)	12.9 µM (inactive)	GI50 [8]: 15.8 µM (inactive); GI50 [2]: 7.33 µM (inactive); GI50 [3]: 17.3 µM (inactive); GI50 [4]: 19.5 µM (inactive); GI50 [7]: 18.2 µM (inactive)
O=S1(=O)OCCOS(=O)(=O)C1Br	–	> 100 µM (inactive)	> 100 µM (inactive)	GI50 [9]: > 100 µM (inactive); GI50 [2]: > 100 µM (inactive); GI50 [4]: > 100 µM (inactive)
Oc1ccc(Cl)cc1-c1cc(-c2ccccc2)nc(NCN2CCCCC2)n1	> 100 µM (inactive)	–	–	–

SMILES	GI50 [1]	GI50 [5]	GI50 [6]	also measured
O=C(O)Cc1nc[nH]c1C(=O)O	> 100 µM (inactive)	–	–	–
C[N+]1(C)CCc2cc(O)c(O)cc2C1Cc1ccc(O)c(O)c1 (stereo unspecified)	> 100 µM (inactive)	–	–	–
N=C(N)c1ccc(C(NC(=O)CNS(=O)(=O)c2ccc3ccccc3c2)P(=O)(Oc2ccccc2)Oc2ccccc2)cc1 (stereo unspecified)	19.2 µM (inactive)	–	–	–
Cc1cccc(NC(=S)Nc2ccc(Cl)cc2)n1	> 100 µM (inactive)	–	–	–
Sc1nnc(COc2ccc(Cl)cc2Cl)[nH]1	–	> 100 µM (inactive)	> 100 µM (inactive)	GI50 [8]: > 100 µM (inactive); GI50 [2]: > 100 µM (inactive); GI50 [3]: > 100 µM (inactive); GI50 [4]: > 100 µM (inactive)
FC(F)(F)c1ccccc1N1CCN(c2nc(-c3cccs3)nc3ccc(Br)cc23)CC1	50 µM (inactive)	–	–	–
C#CC[C@]12CC(=O)CC[C@H]1CC1(C2)OCCO1	–	> 100 µM (inactive)	> 100 µM (inactive)	GI50 [9]: > 100 µM (inactive); GI50 [2]: > 100 µM (inactive); GI50 [3]: > 100 µM (inactive); GI50 [4]: > 100 µM (inactive); GI50 [7]: > 100 µM (inactive)
COC(=O)[C@]12CC=C3O[C@@H]4OC5(CCCCC5)O[C@@H]4[C@H]3C1C(=O)C=CC2=O (stereo partly specified)	19.2 µM (inactive)	18.1 µM (inactive)	15.5 µM (inactive)	GI50 [8]: 12.6 µM (inactive); GI50 [2]: 9.84 µM (inactive); GI50 [3]: 19.7 µM (inactive); GI50 [4]: 18.8 µM (inactive); GI50 [7]: 18.5 µM (inactive)
CN(C)c1c(Cl)c(=O)oc2c1ccc1nc(-c3ccccc3)sc12	> 100 µM (inactive)	–	–	–
COc1cccc(NC(=O)/C(CS(=O)(=O)CCC(C(C)=O)C(C)=O)=N/NC(C)(C)C)c1	–	> 100 µM (inactive)	> 100 µM (inactive)	GI50 [2]: > 100 µM (inactive); GI50 [3]: > 100 µM (inactive); GI50 [4]: > 100 µM (inactive); GI50 [7]: 42.9 µM (inactive)
COc1cc2c(cc1OC)C(N(C)C)C(c1ccccc1)=C2Cl (stereo unspecified)	–	16.4 µM (inactive)	15.1 µM (inactive)	GI50 [9]: 15.7 µM (inactive); GI50 [3]: 25 µM (inactive); GI50 [7]: 28.5 µM (inactive)
O=CC(I)=C(c1ccccc1)c1ccccc1	15.1 µM (inactive)	–	–	–
Cc1cccc2c1NC(=S)[C@@H]1CCCN1C2=O	> 100 µM (inactive)	–	–	–
N=C(N)SCCc1cn2ccccc2n1	–	> 100 µM (inactive)	7.03 µM (inactive)	GI50 [8]: > 100 µM (inactive); GI50 [4]: > 100 µM (inactive); GI50 [7]: > 100 µM (inactive)
Cn1c(=O)c2[nH]c(N=O)nc2n(C)c1=O	> 100 µM (inactive)	–	–	–
C=C(C)[C@@H]1CC[C@]2(C(=O)O)CC[C@]3(C)[C@H](CC[C@@H]4[C@@]5(C)CC(=O)C(C)(C)[C@@H]5CC[C@]43C)[C@@H]12	10.3 µM (inactive)	–	–	–

— ChEMBL document CHEMBL1201862, “PubChem BioAssay data set” (2004)
